According to patent US20260041683A1, “Compounds with Anti-Acinetobacter Baumannii Activity” (University of Kentucky Research Foundation, priority 2022, published 2026):
Converted amounts (≈) assume the structure as drawn. “Also recorded” adds a separate entry of the source. Like-named read-outs stand apart in the source and are kept apart here.

What was measured:
S. aureus ATCC 25923 = experiment: MIC determination; assay type: cell-based; details: Staphylococcus aureus, ATCC25923
[1] = system: human embryonic kidney cells (HEK-293); experiment: Mammalian cytotoxicity assay (resazurin); details: HEK-293, 32 μg/mL (printed 32 g/mL for 3e), 24 h
[2] = system: S. epidermidis ATCC 12228; experiment: MIC determination; assay type: cell-based; details: Staphylococcus epidermidis, ATCC12228
Y. pestis CO92 = experiment: microbe, parasite or virus in culture; assay type: cell-based; details: Yersinia pestis, CO92, read-out: MIC Y. pestis CO92
E. cloacae ATCC 13047 = experiment: MIC determination; assay type: cell-based; details: Enterobacter cloacae, ATCC13047
Ab ATCC 19606 [3] = experiment: Development of resistance, 15-passage MIC assay; assay type: cell-based, Acinetobacter baumannii; details: 15 passages at ½×MIC
M. smegmatis = experiment: MIC determination; assay type: cell-based, Mycobacterium smegmatis; details: Mycolicibacterium smegmatis; Table 4
Ab ATCC 19606 [4] = experiment: Time-kill curves; details: 1×MIC and 4×MIC, up to 24 h
P. aeruginosa ATCC 27853 = experiment: MIC determination; assay type: cell-based; details: Pseudomonas aeruginosa, ATCC27853; Table 5; Mueller-Hinton medium; G = P. aeruginosa ATCC 27853; read-out: MIC strain G
B. anthracis Sterne F32 = experiment: microbe, parasite or virus in culture; assay type: cell-based; details: Bacillus anthracis
K. pneumoniae ATCC 27736 = experiment: MIC determination; assay type: cell-based; details: Klebsiella pneumoniae, ATCC27736; Table 5; Mueller-Hinton medium; F = K. pneumoniae ATCC 27736; read-out: MIC strain F
S. enterica ATCC 14028 = experiment: MIC determination; assay type: cell-based; details: Salmonella enterica, ATCC14028
[5] = system: preformed biofilm of Ab ATCC 19606; experiment: Biofilm disruption assay (crystal violet); details: compound added after formation of biofilm
E. coli MC1061 = experiment: MIC determination; assay type: cell-based; details: Escherichia coli; Table 5; Mueller-Hinton medium; D = E. coli MC1061; read-out: MIC strain D
[6] = system: biofilm formed by Ab ATCC 19606; experiment: Biofilm prevention assay (crystal violet); details: compound added while biofilm is forming

O=C(NNc1ccc(Cl)cc1)c1ccc(F)cn1 [Compound 3e]
MIC (S. aureus ATCC 25923; Table 4, read-out: MIC S. Aureus ATCC 25923): > 16 µg/mL
MIC (S. aureus ATCC 25923; Table 5, Mueller-Hinton medium, B = S. aureus ATCC 25923, read-out: MIC strain B): > 64 µg/mL
inhibition of growth [1]: 17%
MIC ([2]; Table 4, read-out: MIC S. epidermidis ATCC 12228): > 16 µg/mL
MIC ([2]; Table 5, Mueller-Hinton medium, C = S. epidermidis ATCC 12228, read-out: MIC strain C): > 64 µg/mL
MIC (Y. pestis CO92): 8 µg/mL (≈ 30.1 µM)
MIC (E. cloacae ATCC 13047; Table 4, read-out: MIC E. cloacae ATCC 13047): 4 µg/mL (≈ 15.1 µM)
MIC (E. cloacae ATCC 13047; Table 5, Mueller-Hinton medium, E = E. cloacae ATCC 13047, read-out: MIC strain E): 16 µg/mL (≈ 60.2 µM)
emergence of resistance (in words) (Ab ATCC 19606 [3]): not observed even after 15 passages; also recorded: Lack of resistance
MIC (M. smegmatis): 4 µg/mL (≈ 15.1 µM)
bacteriostatic or bactericidal (time-kill) (Ab ATCC 19606 [4]): bacteriostatic
MIC (P. aeruginosa ATCC 27853): > 64 µg/mL
MIC (B. anthracis Sterne F32; STERNEF32, read-out: MIC B. anthracis Sterne F32): > 16 µg/mL
MIC (B. anthracis Sterne F32; STERNEF32, read-out: MIC strain A): > 64 µg/mL
MIC (K. pneumoniae ATCC 27736): 64 µg/mL (≈ 241 µM)
MIC (S. enterica ATCC 14028; Table 4, read-out: MIC S. enterica ATCC 14028): 8 µg/mL (≈ 30.1 µM)
MIC (S. enterica ATCC 14028; Table 5, Mueller-Hinton medium, H = S. enterica ATCC 14028, read-out: MIC strain H): 64 µg/mL (≈ 241 µM)
effect on preformed biofilm (disruption) [5]: did not disrupt a preformed Ab biofilm; also recorded: did not disrupt the preformed biofilm
MIC (E. coli MC1061): 16 µg/mL (≈ 60.2 µM)
effect on biofilm formation (prevention) [6]: biofilm formation was abolished at concentrations above MIC; also recorded: inhibited biofilm formation
